Measurements reported in ChEMBL document CHEMBL3046091, “Synthesis and antimicrobial activities of 2-azetidinyl-4-quinazolinone derivatives of diclofenac analogue” (2011).

Columns and labels:
Assay type in all cases: functional
Pseudomonas aeruginosa [1] = test: Antibacterial activity against Pseudomonas aeruginosa ATCC 9027 at 50 ug/ml by cup-plate method; settings: read-out: IZ
Pseudomonas aeruginosa [2] = test: Antibacterial activity against Pseudomonas aeruginosa ATCC 9027 at 50 to 100 ug/ml by cup-plate method
Pseudomonas aeruginosa [3] = test: Antibacterial activity against Pseudomonas aeruginosa ATCC 9027 at 100 ug/ml by cup-plate method; settings: read-out: IZ
Bacillus subtilis [4] = test: Antibacterial activity against Bacillus subtilis ATCC 6633 at 50 ug/ml by cup-plate method; settings: read-out: IZ
Bacillus subtilis [5] = test: Antibacterial activity against Bacillus subtilis ATCC 6633 at 50 to 100 ug/ml by cup-plate method
Bacillus subtilis [6] = test: Antibacterial activity against Bacillus subtilis ATCC 6633 at 100 ug/ml by cup-plate method; settings: read-out: IZ
Staphylococcus aureus [7] = test: Antibacterial activity against Staphylococcus aureus ATCC 9144 at 50 to 100 ug/ml by cup-plate method
Staphylococcus aureus [8] = test: Antibacterial activity against Staphylococcus aureus ATCC 9144 at 50 ug/ml by cup-plate method; settings: read-out: IZ
Staphylococcus aureus [9] = test: Antibacterial activity against Staphylococcus aureus ATCC 9144 at 100 ug/ml by cup-plate method; settings: read-out: IZ
Candida albicans [10] = test: Antifungal activity against Candida albicans ATCC 10231 at 100 ug/ml by cup-plate method; settings: read-out: IZ
Candida albicans [11] = test: Antifungal activity against Candida albicans ATCC 10231 at 50 ug/ml by cup-plate method; settings: read-out: IZ
Escherichia coli [12] = test: Antibacterial activity against Escherichia coli ATCC 25922 at 50 ug/ml by cup-plate method; settings: read-out: IZ
Escherichia coli [13] = test: Antibacterial activity against Escherichia coli ATCC 25922 at 50 to 100 ug/ml by cup-plate method
Escherichia coli [14] = test: Antibacterial activity against Escherichia coli ATCC 25922 at 100 ug/ml by cup-plate method; settings: read-out: IZ

For `CCN(CC)c1ccc(/C=N/c2ccc(-n3c(Cc4ccccc4Nc4c(Cl)cccc4Cl)nc4ccc(Br)cc4c3=O)cc2)c(O)c1`, the zone of inhibition at 50 µg/mL (Pseudomonas aeruginosa [1]) was 0 mm, the Activity (Pseudomonas aeruginosa [2]) was 0% and the zone of inhibition at 100 µg/mL (Pseudomonas aeruginosa [3]) was 0 mm. It also gave a zone of inhibition at 50 µg/mL (Bacillus subtilis [4]) of 0 mm, an Activity (Bacillus subtilis [5]) of 0% and a zone of inhibition at 100 µg/mL (Bacillus subtilis [6]) of 0 mm. For the same compound, the Activity (Staphylococcus aureus [7]) was 0%, the zone of inhibition at 50 µg/mL (Staphylococcus aureus [8]) was 0 mm and the zone of inhibition at 100 µg/mL (Staphylococcus aureus [9]) was 0 mm. It also gave a zone of inhibition at 100 µg/mL (Candida albicans [10]) of 0 mm, a zone of inhibition at 50 µg/mL (Candida albicans [11]) of 0 mm and a zone of inhibition at 50 µg/mL (Escherichia coli [12]) of 0 mm. The Activity (Escherichia coli [13]) was 0% and the zone of inhibition at 100 µg/mL (Escherichia coli [14]) was 0 mm.
`COc1ccc(C2C(Cl)C(=O)N2c2ccc(-n3c(Cc4ccccc4Nc4c(Cl)cccc4Cl)nc4ccc(Br)cc4c3=O)cc2)cc1` (stereo not drawn) gave a zone of inhibition at 50 µg/mL (Pseudomonas aeruginosa [1]) of 4 mm, an Activity (Pseudomonas aeruginosa [2]) of 65.76% and a zone of inhibition at 100 µg/mL (Pseudomonas aeruginosa [3]) of 8 mm. It also gave a zone of inhibition at 50 µg/mL (Bacillus subtilis [4]) of 4 mm, an Activity (Bacillus subtilis [5]) of 57.14% and a zone of inhibition at 100 µg/mL (Bacillus subtilis [6]) of 8 mm. The Activity (Staphylococcus aureus [7]) was 60.94%, the zone of inhibition at 50 µg/mL (Staphylococcus aureus [8]) was 4 mm and the zone of inhibition at 100 µg/mL (Staphylococcus aureus [9]) was 8 mm. The zone of inhibition at 100 µg/mL (Candida albicans [10]) was 4 mm, the zone of inhibition at 50 µg/mL (Candida albicans [11]) was 2 mm and the zone of inhibition at 50 µg/mL (Escherichia coli [12]) was 4 mm. The Activity (Escherichia coli [13]) was 53.33% and the zone of inhibition at 100 µg/mL (Escherichia coli [14]) was 8 mm.
